Assay: xn = mol fraction of the nth substance listed

O=CC(Cl)(Cl)Cl + CCO
viscosity [mPa·s], 101 kPa
Conditions	313.15 K	318.15 K	323.15 K
x1 = 0.1	1.126	1.031	0.939
x1 = 0.15	1.406	1.271	1.141
x1 = 0.2	1.753	1.569	1.397
x1 = 0.25	2.2	1.951	1.702
x1 = 0.3	2.783	2.383	2.074
x1 = 0.4	4.053	3.366	2.848
x1 = 0.425	4.352	3.58	3
x1 = 0.45	4.632	3.769	3.141
x1 = 0.475	4.757	3.854	3.201
x1 = 0.49	4.703	3.788	3.143
x1 = 0.5	4.565	3.673	3.064
x1 = 0.55	3.937	3.201	2.706
x1 = 0.6	3.311	2.737	2.392
x1 = 0.7	2.258	1.989	1.757
x1 = 0.75	1.976	1.724	1.53
x1 = 0.8	1.755	1.542	1.38
x1 = 0.9	1.351	1.219	1.12

CCCCCCCCCC(=O)OC + CCCCCO
viscosity [mPa·s], 100 kPa
Conditions	x1 = 0.1	x1 = 0.2	x1 = 0.3	x1 = 0.4	x1 = 0.5	x1 = 0.6	x1 = 0.7	x1 = 0.8001	x1 = 0.9001
298.15 K	2.764	2.385	2.169	2.028	1.946	1.892	1.866	1.859	1.875
303.15 K	2.451	2.119	1.938	1.825	1.754	1.706	1.689	1.686	1.712
308.15 K	2.158	1.892	1.741	1.646	1.588	1.549	1.535	1.536	1.555
313.15 K	1.918	1.697	1.571	1.49	1.444	1.413	1.402	1.407	1.426
318.15 K	1.713	1.529	1.423	1.358	1.32	1.293	1.288	1.292	1.312
323.15 K	1.535	1.387	1.294	1.239	1.211	1.189	1.186	1.194	1.212

O=CC(Cl)(Cl)Cl + CC(C)CCO
313.15 K, 101 kPa
Conditions	viscosity [mPa·s]
x1 = 0.0715	2.825
x1 = 0.2226	4.098
x1 = 0.2851	4.684
x1 = 0.3509	5.476
x1 = 0.4001	6.07
x1 = 0.4335	6.48
x1 = 0.4573	6.923
x1 = 0.4722	6.922
x1 = 0.4823	6.831
x1 = 0.4926	6.751
x1 = 0.5251	6.026
x1 = 0.5576	5.406
x1 = 0.6165	3.935
x1 = 0.7376	2.151
x1 = 0.8868	1.283

ClC(Cl)Cl + CCCCO
viscosity [mPa·s], 303.15 K
Conditions	101 kPa	101.3 kPa
x2 = 0.0563	0.5315	0.5315
x2 = 0.0995	0.5491	0.5491
x2 = 0.1395	0.5709	0.5709
x2 = 0.1858	0.6001	0.6001
x2 = 0.2305	0.6329	0.6329
x2 = 0.2878	0.6839	0.6839
x2 = 0.301	0.6958	0.6958
x2 = 0.3666	0.7663	0.7663
x2 = 0.4891	0.9373	0.9373
x2 = 0.5662	1.076	1.076
x2 = 0.6718	1.314	1.314
x2 = 0.7659	1.574	1.574
x2 = 0.8333	1.78	1.78
x2 = 0.9386	2.107	2.107

CCOCCOCC + COCCOCCO
viscosity [mPa·s], 101.33 kPa
Conditions	298.15 K	308.15 K
x1 = 0.0146	3.47	2.55
x2 = 0.0162	0.621	0.538
x2 = 0.0416	0.646	0.559
x2 = 0.0613	0.664	0.574
x2 = 0.0967	0.703	0.6
x2 = 0.1691	0.779	0.666
x2 = 0.2291	0.85	0.718
x2 = 0.2741	0.916	0.765
x2 = 0.3082	0.964	0.809
x2 = 0.344	1.014	0.849
x2 = 0.4006	1.115	0.929
x2 = 0.4593	1.232	1.017
x2 = 0.5082	1.346	1.097
x2 = 0.5635	1.492	1.203
x2 = 0.6145	1.65	1.306
x2 = 0.6552	1.793	1.423
x2 = 0.6969	1.949	1.503
x2 = 0.7526	2.186	1.654
x2 = 0.8075	2.441	1.823
x2 = 0.8567	2.699	1.995
x2 = 0.9074	2.985	2.19
x2 = 0.9515	3.253	2.386

CC(=O)OCc1ccccc1 + Cc1cccc(C)c1
viscosity [mPa·s], 101 kPa
Conditions	x1 = 0.0925	x1 = 0.1766	x1 = 0.2746	x1 = 0.3691	x1 = 0.4674	x1 = 0.5665	x1 = 0.6703	x1 = 0.7681	x1 = 0.8773	x1 = 0.9356
303.15 K	0.593	0.638	0.712	0.79	0.884	0.996	1.125	1.257	1.436	1.535
313.15 K	0.528	0.576	0.634	0.679	0.751	0.837	0.942	1.05	1.177	1.245
